Experimental data from article PMC7125190, “Native/citrullinated LL37-specific T-cells help autoantibody production in Systemic Lupus Erythematosus” (Scientific Reports, 2020).

What was measured:
[1] = tested on: CD3+CD4+ T-cells; experiment: T-cell proliferation assay (BrdU incorporation of PBMC); assay type: cell-based, human; settings: for CLE patients whose CD3+CD4+ cells proliferated: CLE PBMC; for CLE patients whose CD3+CD4+ cells proliferated / SLE patients whose CD3+CD4+ cells proliferated: day 6, BrdU; for CLE patients whose CD3+CD4+ cells proliferated / PSO patients whose T-cells responded / RA patients whose T-cells proliferated / SLE patients whose CD3+CD4+ cells proliferated: positive if SI ≥3; for T-cell proliferation in HD/SSc: HD (LL37, cit-LL37) and SSc (LL37) PBMC; for PSO patients whose T-cells responded: PSO PBMC, ten of twenty-nine (LL37), 3 of 21 (cit-LL37); for PSO patients whose T-cells responded / RA patients whose T-cells proliferated: BrdU; for RA patients whose T-cells proliferated: RA PBMC, two of 15; for SLE patients whose CD3+CD4+ cells proliferated: SLE PBMC, 18 of 40 (LL37), 11 of 25 (cit-LL37); for Change of T-cell response on follow-up: eight SLE patients, up to 36 months of successful standard therapy, statistically significant for native LL37; for Proliferative response in LL37-non-responders: three SLE LL37-non-responders
Description: PBMCs were purified, from EDTA-treated blood, on Ficoll-Hypaque (Pharmacia Fine Chemicals, Uppsala, Sweden) were incubated (10^5 cells/well) in 96-well-flat-bottom-microplates (BD) in T cell- […]
penicillin, and 100 μg/mL streptomycin), with/without peptides. We performed assays on fresh cells, within 1-to-3 hours from collection, or on PBMCs frozen in 90% FCS-10%DMSO, whose viability we assessed by Trypan blue exclusion, at inverted microscope.
At day3 and 5, BrdU was added (1 μg/mL). BrdU-incorporation was detected by APC-labeled anti-BrdU antibody (BD Pharmingen), after surface staining by flow cytometry. Internal control for T-cell viability and proliferation was PHA treatment (2 μg/mL). SI for proliferation was calculated by dividing percent of BrdU-staining in the presence of each peptide used to stimulate cells by percent of BrdU-staining in the absence of peptide stimulation. SI for proliferation was considered positive when>3. This cut-off was obtained by calculating the mean+2DS [1.5 + 2 (0.6)] (of the stimulation indexes calculated as above) of the proliferation of HD.
Basal % of proliferation was set using, as reference, an isotype matched antibody staining (APC- […]
Assays were repeated twice with each patient. In rare cases in which background proliferation exceed antigen-specific proliferation the assay was repeated three times. Concomitant phenotype analysis of LL37-responder T-cells included staining for CD4, CD8, CXCR5, PD1, ICOS, CCR6. […]

[2] = tested on: serum antibodies (anti-native LL37/anti-cit-LL37); experiment: ELISA for autoantibody detection in sera; assay type: binding, human; settings: for Antibody reactivity of control disease sera compared to SLE: psoriasis, RA, SSc and UC sera
Description: Anti-native/cit-LL37, other antigen antibodies (anti-DNA and anti-RNA), and total anti-human IgG were measured by ELISA as described. Briefly, 96-well flat-bottom plates (Non-Binding surface polystyrene, Corning, USA) are coated with 2 μg/mL of native LL37/cit-LL37 or control proteins or human DNA or human RNA[9] or anti-human IgG antibody (Sigma) in carbonate buffer (0.1 M NaHCHO3, pH 9) for 2 hours (or over night) and washed four times with PBS 0.1% Tween-20. This washing buffer was used for washing at all steps. The blocking buffer containing 2% bovine serum albumin (BSA, Sigma) in PBS was used for at least 1 hour (or over night) to saturate unspecific binding sites. After washing, sera were diluted at various concentrations (usually 1:100 or 1:200) in PBS 2% BSA (cell culture supernatants were diluted 1:2, 1:4 or 1:10) followed by 1 hour incubation with a horseradish peroxidase–conjugated (HRP) goat anti-human IgG (Sigma-Aldrich), diluted 1:10,000 in PBS. The color was developed for 5 minutes with 3,3’,5,5’-tetramethylbenzidine (TMB) substrate (Sigma-Aldrich). The reaction was stopped by adding 50 μl of 2 N H2SO4, and absorbance determined at 450 nm with a reference wavelength of 540 nm. Anti-dsDNA in sera of lupus patients were detected by the standard clinical test Kallestad Crithidia luciliae Complete Kits for detection and semi-quantitation of autoantibodies to native DNA (nDNA) antigens by indirect fluorescence antibody (IFA) procedure. ELISA for detection of anti-tetanus antibodies (anti-TT) was from Abnova (Taiwan).

[3] = tested on: SLE/CLE skin and kidney, HD skin; experiment: Immunohistochemistry and laser scanner confocal microscopy of tissues; set-up: species or system human; settings: for presence in SLE and CLE target organs: IHC and LSM, skin (dermis) and kidney; for kidney biopsies with DNA filaments bound to LL37 and/or cit-LL37: lupus nephritis, four of seven biopsies
Description: Immunohistochemistry and laser scanner confocal microscopy (LSM)
We performed staining on […] paraffin or frozen sections of human lupus erythematosus skin specimens obtained from CHUV, Dept. of Dermatology. Staining with anti-cit-LL37 Mabs was performed using the antibodies Mab142 and Mab137 at 1:40 dilution, followed by incubation with a […] (Abcam). HRP and DAB (DAKO) were used to develop the color. Nuclear staining was performed with Mayer’s haematoxylin. […]
Frozen or paraffin-included SLE renal biopsies, obtained from Policlinico Umberto I, Rome, IT or CHUV Lausanne, CH, were stained, after saturation with blocking buffer (PBS, 0.05% tween 20, 4% BSA) for 1 hour at room temperature. Bopsies in paraffin were stained after de-paraffination in xilene (5 minutes, two times), followed by passages in: absolute ethanol (3 minutes), 95% ethanol in water (3 minutes), 80% ethanol in water (3 minutes), 70% ethanol in water (3 minutes), and antigen retrieval (5 minutes at […]
95°C in 10 mM sodium citrate, pH 6.0). Antibodies (Mab142 or Mab137) were added at 1:50 dilution (all diluited in blocking buffer) (isotype control was added at 1:100 concentration) for 1 hour at room temperature in a humidified chamber. Anti-C9 (Atlas antibodies, Sweden) was added at 1:50 dilution (all antibody dilutions were in blocking buffer). Slides were washed three times for 3 minutes under agitation with PBS 0.1% tween 20 and incubated with donkey anti-mouse or anti-rabbit secondary antibody or mouse anti-goat antibody, conjugated with AlexaFluor 647, Alexa Fluor 568 or 594 or AlexaFluor 488, depending on the combinations of markers analyzed (in humidified chamber). Slides were washed again, and mounted in Prolong Gold anti-fade media containing a DNA dye (DAPI) (Molecular Probes), before analysis with a confocal microscope, objectives 20x, or 40x and 60x in oil immersion. Images were taken by a FV1000 confocal microscope (Olympus, Tokyo, Japan), using a Olympus planapo objective 40x or 60x oil A.N. 1,42.
Excitation light was obtained by a Laser Dapi 408 nm for DAPI, an Argon Ion Laser (488 nm) for FITC (Alexa 488), a Diode Laser HeNe (561 nm) for Alexa 568, and a Red Diode Laser (638 nm) for Alexa 647. DAPI emission was recorded from 415 to 485 nm, FITC emission was recorded […]
For quantification of LL37 and cit-LL37 in renal/skin biopsies, we counted the specific staining spots in at least 3 sections from each patient, by using the ImageJ64 software. For comparison we also counted the staining in HD skin, as background staining. To estimate the percent of co-localization between IgG and LL37 staining we measured, in three sections for each patient, the total IgG or LL37 staining in single color images and than on merge images we assessed the spots that indicates the co-localization IgG/LL37.
Reactivity of mouse anti-LL37 monoclonal antibodies (Mab137 and Mab142) Biotinylated native LL37, cit-SCR LL37, SCR LL37, cit-LL37, and the other citrullinated and non-citrullinated control antigenic peptides (also biotinylated) were diluted at 2-to-5 µg/mL and added to the wells over night at 4°C. Excess unbound peptides were washed away with wash buffer (PBS

[4] = eight SLE patients with T-cell follow-up, successful standard therapy
[5] = three SLE patients unresponsive to treatment
[6] = twenty-one SLE patients responding to treatment, 6-to-36 months

## LLGDFFRKSKEKIGKEFKRIVQRIKDFLRNLVPRTES [LL37, native LL37, antimicrobial peptide, 37 aa]
[1]
  CLE patients whose CD3+CD4+ cells proliferated: three of five
  T-cell proliferation in HD/SSc: No SSc or HD showed a significant response
  PSO patients whose T-cells responded: 34%
  RA patients whose T-cells proliferated: 13%
  SLE patients whose CD3+CD4+ cells proliferated: 45%
  Change of T-cell response on follow-up: decreased
  Proliferative response in LL37-non-responders: no proliferation
[2]; SLE sera, twenty-one (native LL37) and eighteen (cit-LL37) of 40
  SLE patients with antibody reactivity: 53%
[2]; [4]
  Antibody reactivity over time: significantly declined
[2]
  Antibody reactivity of control disease sera compared to SLE: significantly weaker
[2]; [5]
  Antibody reactivity over time: increased
[2]; [6]
  Antibody reactivity over time: declined in parallel with SLEDAI reduction
[3]
  presence in SLE and CLE target organs: detected
  kidney biopsies with DNA filaments bound to LL37 and/or cit-LL37: 57%
[3]; healthy donor skin
  expression in HD skin: did not express significant amounts

## LLGDFFR(cit)KSKEKIGKEFKR(cit)IVQR(cit)IKDFLR(cit)NLVPR(cit)TES [cit-LL37, citrullinated LL37 (citrullinated at all five arginin positions)]
[1]
  CLE patients whose CD3+CD4+ cells proliferated: 3 of 5
  T-cell proliferation in HD/SSc: no responses in HD
  PSO patients whose T-cells responded: 14%
  RA patients whose T-cells proliferated: 13%
  SLE patients whose CD3+CD4+ cells proliferated: 44%
  Change of T-cell response on follow-up: decreased
  Proliferative response in LL37-non-responders: no proliferation
[1]; SLE at remission (T1), only at the highest dose
  Proliferative response at remission: still significant only in response to cit-LL37
[1]; SLE, low dose 1 μg/mL, 12 LL37/cit-LL37 responders
  Proliferative response at lower antigen dose, cit-LL37 versus native: T-cells responded better to cit-LL37 than the native counterpart at lower antigen doses
[2]; [4]
  Antibody reactivity over time: significantly declined
[2]
  Antibody reactivity of control disease sera compared to SLE: significantly weaker
[2]; [5]
  Antibody reactivity over time: increased
[2]; [6]
  Antibody reactivity over time: declined in parallel with SLEDAI reduction
[3]
  presence in SLE and CLE target organs: detected
  kidney biopsies with DNA filaments bound to LL37 and/or cit-LL37: 57%
